{"source": "patent US12410152B2", "about": "“Oxazole and thioazole-type cullin ring ubiquitin ligase compounds and uses thereof” (Proxygen GmbH, priority 2019, dated 2025)", "target": "T1, CRL4B complex (CUL4B, DDB1) (Homo sapiens, UniProt Q13620+Q16531)", "T1 construct": "endogenous in cells; host or cells: KBM7 WT cells", "T1 sequence (Q13620 whole entry)": "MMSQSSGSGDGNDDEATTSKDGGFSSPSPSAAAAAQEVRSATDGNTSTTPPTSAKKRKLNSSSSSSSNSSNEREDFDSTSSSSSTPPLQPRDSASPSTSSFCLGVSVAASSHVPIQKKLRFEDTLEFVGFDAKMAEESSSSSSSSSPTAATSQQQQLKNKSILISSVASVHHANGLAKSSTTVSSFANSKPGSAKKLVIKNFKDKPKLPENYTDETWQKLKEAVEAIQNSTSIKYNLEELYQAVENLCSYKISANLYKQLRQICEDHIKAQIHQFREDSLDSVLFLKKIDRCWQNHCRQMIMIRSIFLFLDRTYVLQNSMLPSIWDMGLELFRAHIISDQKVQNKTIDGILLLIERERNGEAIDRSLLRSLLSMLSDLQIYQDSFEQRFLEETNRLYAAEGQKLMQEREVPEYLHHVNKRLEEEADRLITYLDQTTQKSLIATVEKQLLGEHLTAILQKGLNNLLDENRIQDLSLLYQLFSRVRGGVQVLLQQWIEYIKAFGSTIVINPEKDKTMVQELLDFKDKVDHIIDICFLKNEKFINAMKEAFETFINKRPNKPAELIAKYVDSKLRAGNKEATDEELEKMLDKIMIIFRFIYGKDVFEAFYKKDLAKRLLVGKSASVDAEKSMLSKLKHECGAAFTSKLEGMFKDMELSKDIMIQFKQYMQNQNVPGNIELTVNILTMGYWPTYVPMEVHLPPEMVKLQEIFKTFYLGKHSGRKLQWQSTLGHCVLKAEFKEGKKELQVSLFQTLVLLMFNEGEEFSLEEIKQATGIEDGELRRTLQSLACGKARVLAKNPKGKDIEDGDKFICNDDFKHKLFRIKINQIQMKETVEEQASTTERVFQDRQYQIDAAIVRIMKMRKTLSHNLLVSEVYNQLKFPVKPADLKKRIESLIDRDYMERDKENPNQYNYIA", "T1 sequence (Q16531 2-1140 limits assumed)": "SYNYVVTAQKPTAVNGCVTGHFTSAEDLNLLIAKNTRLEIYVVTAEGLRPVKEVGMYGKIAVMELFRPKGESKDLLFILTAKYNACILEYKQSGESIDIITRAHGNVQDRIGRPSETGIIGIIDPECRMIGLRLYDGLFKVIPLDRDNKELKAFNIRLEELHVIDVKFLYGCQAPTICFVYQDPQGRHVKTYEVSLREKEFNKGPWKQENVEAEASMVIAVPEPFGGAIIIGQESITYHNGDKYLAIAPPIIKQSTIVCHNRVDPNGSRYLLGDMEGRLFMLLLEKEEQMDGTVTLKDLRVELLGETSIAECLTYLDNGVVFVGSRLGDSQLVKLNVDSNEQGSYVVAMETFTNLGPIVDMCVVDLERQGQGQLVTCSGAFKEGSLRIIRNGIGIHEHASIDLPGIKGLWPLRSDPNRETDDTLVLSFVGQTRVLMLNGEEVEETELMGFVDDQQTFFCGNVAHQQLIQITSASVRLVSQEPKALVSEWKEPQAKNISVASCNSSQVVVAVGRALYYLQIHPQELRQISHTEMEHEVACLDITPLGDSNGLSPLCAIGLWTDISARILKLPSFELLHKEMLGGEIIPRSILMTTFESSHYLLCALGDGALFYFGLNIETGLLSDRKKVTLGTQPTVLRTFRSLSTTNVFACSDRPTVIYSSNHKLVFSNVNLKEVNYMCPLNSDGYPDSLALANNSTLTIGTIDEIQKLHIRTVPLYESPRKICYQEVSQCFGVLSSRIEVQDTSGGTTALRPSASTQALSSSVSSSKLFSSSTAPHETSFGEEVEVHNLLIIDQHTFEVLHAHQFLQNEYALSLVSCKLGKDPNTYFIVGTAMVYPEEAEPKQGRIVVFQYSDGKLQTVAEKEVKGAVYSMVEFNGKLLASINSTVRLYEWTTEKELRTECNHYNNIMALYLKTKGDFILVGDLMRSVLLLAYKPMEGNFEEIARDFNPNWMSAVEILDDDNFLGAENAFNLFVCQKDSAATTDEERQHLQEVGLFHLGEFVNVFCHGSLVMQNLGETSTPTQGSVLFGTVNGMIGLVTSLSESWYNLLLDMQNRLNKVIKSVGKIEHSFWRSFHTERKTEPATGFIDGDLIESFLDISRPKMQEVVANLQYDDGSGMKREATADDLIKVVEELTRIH", "T1 sequence (Q9NYV4 whole entry partner)": "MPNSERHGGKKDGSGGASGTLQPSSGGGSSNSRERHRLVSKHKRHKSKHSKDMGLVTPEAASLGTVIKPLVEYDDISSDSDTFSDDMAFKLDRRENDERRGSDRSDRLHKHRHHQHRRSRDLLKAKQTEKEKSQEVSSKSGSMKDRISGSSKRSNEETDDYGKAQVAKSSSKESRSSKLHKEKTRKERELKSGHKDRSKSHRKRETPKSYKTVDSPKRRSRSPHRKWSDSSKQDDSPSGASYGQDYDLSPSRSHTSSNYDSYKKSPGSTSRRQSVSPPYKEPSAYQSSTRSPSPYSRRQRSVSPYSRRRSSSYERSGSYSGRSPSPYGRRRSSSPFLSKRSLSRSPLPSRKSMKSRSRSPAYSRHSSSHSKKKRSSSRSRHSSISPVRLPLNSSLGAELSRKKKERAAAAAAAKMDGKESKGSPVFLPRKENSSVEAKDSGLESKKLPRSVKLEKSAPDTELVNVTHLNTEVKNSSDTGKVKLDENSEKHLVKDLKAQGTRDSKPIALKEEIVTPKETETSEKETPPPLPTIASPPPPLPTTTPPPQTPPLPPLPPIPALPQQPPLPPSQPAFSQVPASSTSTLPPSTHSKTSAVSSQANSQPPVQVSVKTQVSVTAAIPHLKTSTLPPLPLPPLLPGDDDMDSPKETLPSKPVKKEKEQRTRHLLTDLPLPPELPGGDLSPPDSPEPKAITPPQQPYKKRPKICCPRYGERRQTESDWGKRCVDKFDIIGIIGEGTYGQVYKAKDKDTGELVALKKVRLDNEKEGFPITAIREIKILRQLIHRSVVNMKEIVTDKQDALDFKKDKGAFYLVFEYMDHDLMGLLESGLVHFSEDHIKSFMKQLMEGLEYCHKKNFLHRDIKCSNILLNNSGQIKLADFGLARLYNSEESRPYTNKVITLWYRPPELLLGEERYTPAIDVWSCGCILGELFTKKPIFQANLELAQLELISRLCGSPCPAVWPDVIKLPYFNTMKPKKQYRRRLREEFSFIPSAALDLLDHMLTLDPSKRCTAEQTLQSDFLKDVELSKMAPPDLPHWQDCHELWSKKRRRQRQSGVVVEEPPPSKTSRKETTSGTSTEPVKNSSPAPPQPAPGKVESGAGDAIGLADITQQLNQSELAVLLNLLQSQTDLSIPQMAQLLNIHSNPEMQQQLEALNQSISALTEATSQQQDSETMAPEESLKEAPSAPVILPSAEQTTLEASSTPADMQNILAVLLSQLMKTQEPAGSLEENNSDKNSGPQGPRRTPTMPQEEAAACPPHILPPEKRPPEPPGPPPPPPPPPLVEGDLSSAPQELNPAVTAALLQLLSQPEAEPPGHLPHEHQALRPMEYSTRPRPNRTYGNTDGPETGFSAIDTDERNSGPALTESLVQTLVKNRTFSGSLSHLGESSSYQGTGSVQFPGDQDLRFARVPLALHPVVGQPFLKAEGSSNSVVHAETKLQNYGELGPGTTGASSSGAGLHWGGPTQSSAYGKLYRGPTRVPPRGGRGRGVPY", "T1 sequence (O75909 whole entry partner)": "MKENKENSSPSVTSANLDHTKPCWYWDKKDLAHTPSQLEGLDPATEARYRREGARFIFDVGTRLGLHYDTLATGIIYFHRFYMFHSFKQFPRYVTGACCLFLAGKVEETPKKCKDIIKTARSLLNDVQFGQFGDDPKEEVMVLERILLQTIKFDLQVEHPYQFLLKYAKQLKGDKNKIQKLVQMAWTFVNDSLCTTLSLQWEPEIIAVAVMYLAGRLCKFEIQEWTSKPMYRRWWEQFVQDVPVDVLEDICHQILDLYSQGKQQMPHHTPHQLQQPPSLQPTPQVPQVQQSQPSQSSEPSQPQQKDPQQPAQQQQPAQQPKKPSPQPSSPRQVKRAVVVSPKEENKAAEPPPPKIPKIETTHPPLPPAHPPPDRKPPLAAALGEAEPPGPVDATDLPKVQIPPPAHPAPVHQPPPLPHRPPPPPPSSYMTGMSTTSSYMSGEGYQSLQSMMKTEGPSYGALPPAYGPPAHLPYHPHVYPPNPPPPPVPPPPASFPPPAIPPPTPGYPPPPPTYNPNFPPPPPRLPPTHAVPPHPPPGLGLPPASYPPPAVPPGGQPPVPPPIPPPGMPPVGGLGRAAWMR", "assay": "Chemoproteomics with IC021313.2 photoaffinity probe, competitive setup", "assay_type": "binding", "details": "KBM7 WT; 100 μM competitor, 10 μM photoprobe", "from_the_text": "Another explanation would be (2) functional redundancy, where our identified small-molecules modulate more than one SR in an interchangeable manner (either directly or indirectly). Lastly (3), it could be that the tested molecules endow a neomorphic function of the CRL4B complex by binding to a non-SR component. In order to disentangle these hypotheses, and to test if the assayed molecules would directly bind to/physically engage the CRL4B complex, IC021313.2 was derivatized with a moiety consisting of a photoactive diazirine group and an alkyl handle (FIG. 7). The ensuing functionalized molecule was used to purify proteins physically binding to the compound (“interactors”). In order to gain increased confidence, a competitive setup was chosen where cells were initially treated with the parental, non-modified compound or vehicle control. Compound treatment (1h) at excess concentrations of 100 μM was expected to saturate binding sites. Subsequently, cells (both vehicle- and compound-treated) were treated with the functionalized probe for 1 h at 10 μM, followed by UV-crosslinking. Next, cells were lysed and a biotin-azide linker was attached via click chemistry, and interacting proteins (“interactors”) were purified via biotin enrichment over a Streptavidin column and subjected to unbiased detection via label-free proteomics analysis. […]", "data": [{"compound": "O=C(CSc1nc2ccccc2[nH]1)Nc1ccc(Cl)cn1", "note": "[IC021313.2]", "values": [{"measurement": "physical engagement of CRL4B complex (competitive photoprobe pulldown, MS)", "result": "physically engages with a CRL4B complex"}]}]}
